# Laboratory results reported in patent US20200289482A1, “CYSTIC FIBROSIS TRANSMEMBRANE CONDUCTANCE REGULATOR MODULATORS FOR TREATING AUTOSOMAL DOMINANT POLYCYSTIC KIDNEY DISEASE” (The Johns Hopkins University, priority 2017, published 2020).
# Legend:
# Format in all cases: cell-based, mouse
# [1] = test system: cAMP in PN cells; test: Cyclic AMP enzyme immunoassay in cells; conditions: for increase of cAMP activity in PN cells: treating PN cells with forskolin or IBMX
# Protocol: FIG. 4A, FIG. 4B, FIG. 4C, FIG. 4D, and FIG. 4E show (FIG. 4A-FIG. 4B) cAMP levels are reduced by VX-809. (FIG. 4A) cAMP levels in mouse tissue were reduced by VX-809. The kidney samples (n=6) analyzed were taken from those depicted in FIG. 1. (FIG. 4B) Confluent PN and PH cells were treated with VX-809 (10 μM) or DMSO for 16 h and then treated with forskolin (100 μM) for 30 min before the cells were harvested for the assay. Columns represent means±SEM. Statistical analysis was performed using a two-tailed Student's t-test. Each set of data is from three individual wells; Note that resting cAMP is greater in PN vs PH cells as previously shown (25). Also note that forskolin caused a large increase in cAMP. A smaller increase occurred with IBMX. However, the increase induced by forskolin alone was similar to that by IBMX plus forskolin. […] (FIG. 4C, FIG. 4D, and FIG. 4E) Adenylyl cyclase expression. (FIG. 4C) Western blot showing the expression of adenylyl cyclase (AC) 6 and AC3 in treated and control PN cells. (FIG. 4D-FIG. 4E) Columns represent means±SEM of the AC3 and AC6 expression. The data were analyzed by non-parametric t-test. The experiment was repeated four times. For all graphs, *P<0.05, **P<0.01, and ***P<0.001;
# It has been shown previously in both animal and cell culture models of ADPKD that cells lacking functional PC1 have elevated cAMP levels when compared to normal (24). To assess the effect of CFTR correctors, cAMP activity was measured in PC1 conditional knockout mouse kidneys and in PN cells that were either left untreated or treated with VX-809. […] Cells were treated with forskolin, which increased cAMP levels drastically (FIG. 4B). […] Treating PN cells with forskolin or IBMX (FIG. 4B) increased the cAMP activity by ˜10-fold.
# Confluent cells were treated with VX-809 (10 μM) or DMSO for 16 h before being harvested for assay. Cyclic AMP levels were measured with a direct cAMP Enzyme Immunoassay Kit (Sigma, # CA200) according to the manufacturer's protocol. The results are expressed as pmole/ml. Statistical analysis was performed using a two-tailed Student's t-test.
# [2] = test system: Hsp70; test: Cycloheximide chase, disappearance of Hsp70 in PN cells; conditions: cycloheximide 25 μM, 8 h
# Protocol: (§1) FIG. 9A, FIG. 9B, FIG. 9C, FIG. 9D, FIG. 9E, FIG. 9F, FIG. 9G, and FIG. 9H show Hsp27, HSp70, and Hsp90 expression in PN cells treated with VX-809 and/or cycloheximide. (A) Pkd1 null (PN) cells were treated with VX-809 (10 μM) and/or with cycloheximide (25 μM) for indicated time points before being harvested for the assay. (FIG. 9A) Western blot showing expression of Hsp27, Hsp70, and Hsp90 in VX-809-(16 h), cycloheximide-treated, or control PN cells. ((FIG. 9B. (FIG. 9C, and (FIG. 9D) Columns represent averages±standard errors of Hsp27, Hsp70, and Hsp90 expression in cells treated with VX-809 and/or cycloheximide. ((FIG. 9E) Western blot showing expression of Hsp27, Hsp70, and Hsp90 in PN cells treated with VX-809+cycloheximide or control PN cells. ((FIG. 9F, (FIG. 9G, and (FIG. 9H) Columns represent averages±standard errors of Hsp27, Hsp70, and Hsp90 expression in cells treated only with cycloheximide or in control PN cells. Data were analyzed by non-parametric t-test. The experiments were repeated 3-5 times. *P<0.05, **P<0.01;
# (§2) To gain more insight into the mechanism whereby VX-809 alters Hsp protein levels, translation was inhibited by using cycloheximide (35) and the disappearance of the three Hsps was monitored. […] Hsp 90 was reduced by approximately 25%, and Hsp27 was unchanged.
# [3] = test system: Hsp90; test: Cycloheximide chase, disappearance of Hsp90 in PN cells; conditions: cycloheximide 25 μM, 8 h
# Protocol: as §1, §2
# [4] = test system: Hsp27; test: Cycloheximide chase, disappearance of Hsp27 in PN cells; conditions: cycloheximide 25 μM, 8 h
# Protocol: as §1, §2
Structure (SMILES),increase of cAMP activity in PN cells [1],steady-state level of Hsp70 after cycloheximide alone [2],steady-state level of Hsp90 after cycloheximide alone [3],steady-state level of Hsp27 after cycloheximide alone [4],forskolin elevates cAMP activity ([1]; as restated at the end of Example 4)
"CC(C)Cn1c(=O)n(C)c(=O)c2[nH]cnc21 [IBMX, 3-isobutyl-1-methylxanthine]",~10 fold,–,–,–,–
C[C@@H]1C[C@@H]([C@H](O)CC2CC(=O)NC(=O)C2)C(=O)[C@@H](C)C1 [cycloheximide],–,unchanged over the 8 h,unchanged over the 8 h,unchanged over the 8 h,–
C=C[C@@]1(C)CC(=O)[C@]2(O)[C@@]3(C)[C@@H](O)CCC(C)(C)[C@@H]3[C@H](O)[C@H](OC(C)=O)[C@@]2(C)O1 [forskolin],~10 fold,–,–,–,~500 fold
